Assay results published in patent publication US20020026053A1, “Novel 3-(substituted) -2- indolinones compounds and use thereof as inhibitors of protein kinase activity” (priority 1997, published 2002).

How the values were obtained:
FLK-1 receptor = experiment: FLK-1 Assay (cellular/catalytic ELISA, VEGF-stimulated phosphotyrosine); type: cell-based; set-up: concentration or dose not given beside the values
In short: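 NIH3T3 C7#3 cells engineered to express Flk-1 were serum-starved overnight (0.1% FBS), then exposed to compound for 2 h at 37 °C (final dilution 1:200, 0.5% DMSO) before VEGF stimulation. Lysates captured on anti-FLK-1 antiserum plates; phosphotyrosine detected by UB40 antibody/POD-ABTS ELISA versus untreated controls.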

PDGF-R = PDGF-R Assay (cellular ELISA, U1242 cells); type: cell-based; set-up: concentration or dose not given beside the values
In short: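 U1242 cells seeded in 0.5% serum, serum-starved, then exposed to compound for 2 hr at 37°C before 5–10 min ligand stimulation and lysis in HNTG. Lysate captured on receptor-antibody-coated plates; phosphotyrosine detected with polyclonal anti-pTyr, goat anti-rabbit IgG and ABTS/H2O2, A410 (ref 630 nm), versus untreated cells.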

Row | SMILES | Flk Kinase % Inhibition (P.110) (FLK-1 receptor) | PDGF Kinase % Inhibition (P.119) (PDGF-R)
1 | N#Cc1ccccc1C=C1C(=O)Nc2ccc(S(=O)(=O)Nc3ccc(C(F)(F)F)cc3)cc21 [10735/E07] | 16.1% | 57.1%
2 | O=C1Nc2ccc(S(=O)(=O)Nc3ccc(C(F)(F)F)cc3)cc2C1=Cc1c(F)cccc1F [10735/E08] | 14.4% | 25.4%
3 | O=C1Nc2ccc(S(=O)(=O)Nc3ccc(C(F)(F)F)cc3)cc2C1=Cc1cccc2ccccc12 [10735/E09] | 29.6% | 37.1%
4 | O=C1Nc2ccc(S(=O)(=O)Nc3ccc(C(F)(F)F)cc3)cc2C1=Cc1ccc(Cl)cc1Cl [10735/E10] | 10.2% | 27.1%
5 | O=C1Nc2ccc(S(=O)(=O)Nc3ccc(C(F)(F)F)cc3)cc2C1=Cc1ccc(-c2ccccc2)cc1 [10735/E11] | 21.9% | 11.9%
6 | Cc1ccccc1C=C1C(=O)Nc2ccc(S(=O)(=O)N3CCOCC3)cc21 [10735/F02] | 2.1% | 6.0%
7 | O=C1Nc2ccc(S(=O)(=O)N3CCOCC3)cc2C1=Cc1ccc(F)c(F)c1 [10735/F03] | 11.0% | 7.8%
8 | O=C1Nc2ccc(S(=O)(=O)N3CCOCC3)cc2C1=Cc1cc(F)cc(F)c1 [10735/F04] | 16.4% | 40.5%
9 | O=C1Nc2ccc(S(=O)(=O)N3CCOCC3)cc2C1=Cc1cccc(C(F)(F)F)c1 [10735/F05] | 30.2% | 37.1%
10 | O=C1Nc2ccc(S(=O)(=O)N3CCOCC3)cc2C1=Cc1cc(C(F)(F)F)cc(C(F)(F)F)c1 [10735/F06] | 16.7% | 20.9%
11 | N#Cc1ccccc1C=C1C(=O)Nc2ccc(S(=O)(=O)N3CCOCC3)cc21 [10735/F07] | 34.0% | 19.2%
12 | O=C1Nc2ccc(S(=O)(=O)N3CCOCC3)cc2C1=Cc1c(F)cccc1F [10735/F08] | 10.7% | 13.3%
13 | O=C1Nc2ccc(S(=O)(=O)N3CCOCC3)cc2C1=Cc1cccc2ccccc12 [10735/F09] | 40.2% | 19.8%
14 | O=C1Nc2ccc(S(=O)(=O)N3CCOCC3)cc2C1=Cc1ccc(Cl)cc1Cl [10735/F10] | 40.0% | 13.3%
15 | O=C1Nc2ccc(S(=O)(=O)N3CCOCC3)cc2C1=Cc1ccc(-c2ccccc2)cc1 [10735/F11] | 34.6% | 4.0%
16 | Cc1ccccc1C=C1C(=O)Nc2ccc(CCCl)cc21 [10735/G02] | 5.1% | 7.1%
17 | O=C1Nc2ccc(CCCl)cc2C1=Cc1ccc(F)c(F)c1 [10735/G03] | 6.8% | 6.4%
18 | O=C1Nc2ccc(CCCl)cc2C1=Cc1cc(F)cc(F)c1 [10735/G04] | 15.6% | 11.6%
19 | O=C1Nc2ccc(CCCl)cc2C1=Cc1cccc(C(F)(F)F)c1 [10735/G05] | 8.8% | 13.6%
20 | O=C1Nc2ccc(CCCl)cc2C1=Cc1cc(C(F)(F)F)cc(C(F)(F)F)c1 [10735/G06] | 18.5% | 12.9%
